Data as given in patent publication US20090012125A1, “Piperidine Derivatives, Their Process for Preparation, Their Use as Therapeutic Agents and Pharmaceutical Compositions Containing Them” (priority 2006, published 2009).

Key:
[1] = Intrinsic clearance with human liver microsomes; type: in vitro ADME; conditions: human liver microsomes 1 mg protein/ml, NADPH, pH 7.4
Method: Determination of Intrinsic Clearance with Human Liver Microsomes
Frozen human liver microsomes (BD Gentest, Oxford) were defrosted and were then diluted with 0.1 M pH 7.4 phosphate buffer at 4° C. to 1 mg protein/ml. 0.45 mL aliquots of the microsome suspension were dispensed into flat-bottomed vials (1 per compound) and were allowed to come to room temperature (5 min). During the warming time, 5 μL of solution of each test compound (typically 100 μM in DMSO) was dispensed into separate vials resulting in a final DMSO concentration of 1%. 50 μL of a 10 mM solution of NADPH in phosphate buffer (0.1 M pH 7.4, 37° C.) was added to each vial to initiate metabolism.
50 μL Aliquots of the mixtures were removed at measured intervals and were immediately quenched by addition to 100 μL of methanol cooled in ice. The quenched samples were kept cold (at −20° C. or less) for at least 1 h and were then centrifuged to remove protein
The supernatant solution was analysed using quantitative LCMS for the presence of test compound. From the concentrations of test compound at different time points a T1/2 may be calculated which may be converted to an intrinsic clearance using the equation: CLint=ln 2/T1/2.

[2] = biological target: T1, human recombinant CCR3 receptors (Homo sapiens, UniProt P51677); assay: Compound affinity at human recombinant CCR3 receptors by radioligand competition, CHO-K1 cell membranes; type: binding; conditions: mean of minimum 2 experiments; Cheng-Prussof correction of pIC50; 2 nM [3H] radioligand, 2 h at 37° C.; read-out: CCR3 pKi (converted)
T1 construct: expressed in transfected cells
T1 sequence (P51677 1-355): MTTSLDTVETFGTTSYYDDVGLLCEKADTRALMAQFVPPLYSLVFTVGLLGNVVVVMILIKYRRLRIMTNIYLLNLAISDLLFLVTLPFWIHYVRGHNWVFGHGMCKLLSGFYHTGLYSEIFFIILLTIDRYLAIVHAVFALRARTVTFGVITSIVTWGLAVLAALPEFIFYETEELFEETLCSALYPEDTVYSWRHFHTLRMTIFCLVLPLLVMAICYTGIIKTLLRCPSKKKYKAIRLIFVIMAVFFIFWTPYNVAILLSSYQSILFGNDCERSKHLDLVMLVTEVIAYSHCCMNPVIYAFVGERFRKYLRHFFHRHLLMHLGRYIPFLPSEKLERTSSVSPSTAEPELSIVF
Method: Determination of Compound Affinity at Human Recombinant CCR3 Receptors Assessed by Competition Of [^3H]-4-(2,4-dichloro-3-methylphenoxy)-1′-[4-(methylsulfonyl)benzoyl]-1,4′-bipiperidine for CHO-K1 Cell Membranes In Vitro
Membranes, prepared from CHO-K1 cells stably expressing recombinant human CCR3, suspended in assay buffer (50 mM Tris-Base, pH 7.4; containing sodium chloride (100 mM) and magnesium chloride (2 mM)) were incubated in the presence of 2 nM [^3H]-4-(2,4-dichloro-3-methylphenoxy)-1′-[4-(methylsulfonyl)benzoyl]-1,4′-bipiperidine, along with vehicle (1% (v/v) DMSO), 4-(4-chloro-3-methylphenoxy)-1′-[2-(methylsulfonyl)benzoyl]-1,4′-bipiperidine (to define non-specific binding) or test compound for 2 h at 37° C. in round bottomed 96-well plates. The plates were then filtered onto GF/B filter plates, pre-soaked for 1 hour in plate-coating solution (0.3% (w/v) polyethylenimine, 0.2% (w/v) BSA in de-ionised water), using a 96-well plate Tomtec cell harvester. Four washes (250 μL) with wash buffer (50 mM Tris-Base, pH 7.4 containing sodium chloride (500 mM) and magnesium chloride (2 mM)) were performed at 4° C. to remove unbound radioactivity. Plates were dried and MicroScint-O (50 μL) was added to each well. The plates were sealed (TopSeal A) and filter-bound radioactivity was measured with a scintillation counter (TopCount, Packard BioScience) using a 1 minute counting protocol.
Specific binding was determined from values of the control wells minus the values for the NSB wells for each assay plate. pIC50 values were calculated using a four parameter logistic fit (where pIC50 is defined as the negative logarithm of the concentration of compound required for 50% reduction in specific [^3H]-4-(2,4-dichloro-3-methylphenoxy)-1′-[4-(methylsulfonyl)benzoyl]-1,4′-bipiperidine binding). Data were presented as mean pKi values (calculated by applying a Cheng-Prussof correction to pIC50 values) from a minimum of 2 separate experiments.

Row | CLint scaled at 1 µM [1] [mL/min/kg] | Ki [2] [nM] | SMILES
1 | < 3 | 63.1 | O=C(CCc1ccc(C(=O)O)cc1)NC1CCN(Cc2ccc(Cl)c(Cl)c2)CC1 [Example 2, 4-{2-[1-(3,4-Dichloro-benzyl)-piperidin-4-ylcarbamoyl]-ethyl}-benzoic acid]
2 | < 3 | 79.4 | O=C(CCc1cccc(C(=O)O)c1)NC1CCN(Cc2ccc(Cl)c(Cl)c2)CC1 [Example 4, 3-{2-[1-(3,4-Dichloro-benzyl)-piperidin-4-ylcarbamoyl]-ethyl}-benzoic acid]
3 | < 3 | 15.8 | O=C(CCc1ccc2cc(C(=O)O)ccc2c1)NC1CCN(Cc2ccc(Cl)c(Cl)c2)CC1 [Example 6, 6-{2-[1-(3,4-Dichloro-benzyl)-piperidin-4-ylcarbamoyl]-ethyl}-naphthalene-2-carboxylic acid]
